This is an account of results in ChEMBL document CHEMBL1201862, “PubChem BioAssay data set” (2004).

Each structure is given as a SMILES string.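 Grown in 96-well plates, cells were treated for 48 hours with each compound at five concentrations. Insufficient inhibition: endpoint recorded as highest concentration tested. GI50 is the concentration that inhibits growth by half.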 Calls of active or inactive are those of the source. No stated cut-off is given here; in the data, active = GI50 up to about 1.1 µM and inactive = higher. Where only a bound is given, the exact number is not on record here.

Among the test systems are ACHN; IGROV-1; NCI-H226; MDA-MB-231; NCI-H460; HCT-116; NCI-H23; SW-620; SF-295; SN12C; COLO 205; MCF7; TK-10; HCC 2998; EKVX; SK-MEL-5; OVCAR-3; NCI-H522; RPMI-8226.
Holding throughout (assay): growth of human tumour cells (NCI), 48 h

Take `COC(=O)N[C@H](C(=O)O)C(C)O[Si](C)(C)C(C)(C)C` (stereo partly drawn): the GI50 in the experiment on ACHN, in the experiment with IGROV-1, with NCI-H226, in the experiment with MDA-MB-231, in the experiment on NCI-H460 and with HCT-116 was > 100 µM (inactive) in each case. The GI50 with NCI-H23, with SW-620, with SF-295, with SN12C, with COLO 205 and in the experiment with MCF7 was > 100 µM (inactive) each time. In addition, the GI50 is > 100 µM (inactive) with TK-10; > 100 µM (inactive) in the experiment with HCC 2998; > 100 µM (inactive) in the experiment on EKVX; > 100 µM (inactive) in the experiment on SK-MEL-5; 7.08 µM (inactive) in the experiment with OVCAR-3; > 100 µM (inactive) with NCI-H522. Also, the GI50 in the experiment on RPMI-8226 was > 100 µM (inactive).
On to `Clc1ccc(-c2cn3c(nc4ccccc43)c(-c3ccccc3)n2)cc1`, for which the GI50 is 29.6 µM (inactive) in the experiment with ACHN; 24 µM (inactive) in the experiment with IGROV-1; 47 µM (inactive) in the experiment with NCI-H226; 42.6 µM (inactive) in the experiment with MDA-MB-231; 18 µM (inactive) in the experiment with NCI-H460; 29.9 µM (inactive) in the experiment with HCT-116. Besides, the GI50 is 24.5 µM (inactive) in the experiment on NCI-H23; 43.3 µM (inactive) in the experiment on SW-620; 13.3 µM (inactive) with SF-295; 36.5 µM (inactive) in the experiment with SN12C; 40.2 µM (inactive) in the experiment with COLO 205; 28.1 µM (inactive) in the experiment with MCF7. Further, the GI50 with TK-10 was 22 µM (inactive); in the experiment on HCC 2998, 44.9 µM (inactive); with EKVX it was 64.3 µM (inactive); in the experiment with SK-MEL-5, 17.7 µM (inactive); in the experiment on OVCAR-3, 27.7 µM (inactive); with NCI-H522 it was 13.8 µM (inactive). For the same compound, the GI50 in the experiment on RPMI-8226 was > 100 µM (inactive).
As for `COC(=O)CC(C)(N[S+]([O-])c1ccc(C)cc1)c1ccccc1` (stereo not drawn), the GI50 with ACHN, with IGROV-1, in the experiment on NCI-H226, with MDA-MB-231, with NCI-H460 and with HCT-116 was > 100 µM (inactive) each time. Further, the GI50 in the experiment on NCI-H23, in the experiment on SW-620, in the experiment on SF-295, in the experiment on SN12C, in the experiment with COLO 205 and in the experiment with MCF7 was > 100 µM (inactive) in each case. For the same compound, the GI50 in the experiment with TK-10, with HCC 2998, with EKVX, in the experiment with SK-MEL-5, in the experiment on OVCAR-3 and in the experiment with NCI-H522 was > 100 µM (inactive) each time. Also, in the experiment on RPMI-8226, the GI50 is > 100 µM (inactive).
Take `CCN(CC)CCN1c2ccccc2Sc2ccc3ccccc3c21`: the GI50 was 13.7 µM (inactive) in the experiment with ACHN; 10.2 µM (inactive) in the experiment on IGROV-1; 7.45 µM (inactive) in the experiment on NCI-H226; 6.03 µM (inactive) in the experiment with MDA-MB-231; 2.07 µM (inactive) in the experiment on NCI-H460; 10.8 µM (inactive) with HCT-116. The GI50 with NCI-H23 was 15.5 µM (inactive); with SW-620, 11.4 µM (inactive); in the experiment on SF-295 it was 13.2 µM (inactive); in the experiment with SN12C, 11.7 µM (inactive); in the experiment on COLO 205, 4.75 µM (inactive); in the experiment on MCF7, 9.27 µM (inactive). The GI50 in the experiment with TK-10 was 1.67 µM (inactive); in the experiment on HCC 2998, 2.23 µM (inactive); in the experiment with EKVX it was 6.37 µM (inactive); in the experiment with SK-MEL-5 it was 4.72 µM (inactive); with OVCAR-3, 11.6 µM (inactive); with NCI-H522, 11.8 µM (inactive). Also, in the experiment with RPMI-8226, the GI50 was 3.33 µM (inactive).
On to `NC(=O)NC(=O)c1cnccn1`, for which the GI50 with ACHN is > 100 µM (inactive); with NCI-H226, 54.1 µM (inactive); in the experiment on MDA-MB-231, > 100 µM (inactive); with NCI-H460 it was > 100 µM (inactive); in the experiment on HCT-116, > 100 µM (inactive); with NCI-H23 it was > 100 µM (inactive). Besides, the GI50 in the experiment with SW-620 was > 100 µM (inactive); with SF-295, > 100 µM (inactive); in the experiment with SN12C it was > 100 µM (inactive); in the experiment on COLO 205 it was > 10 µM (inactive); in the experiment on MCF7, > 100 µM (inactive); with TK-10, 12.1 µM (inactive). Besides, the GI50 in the experiment with HCC 2998 was > 100 µM (inactive); with EKVX, > 100 µM (inactive); with SK-MEL-5, > 10 µM (inactive); in the experiment on OVCAR-3 it was > 100 µM (inactive); with NCI-H522, > 100 µM (inactive); in the experiment on RPMI-8226, > 100 µM (inactive).
In the case of `CCCC(=O)Nc1cc(/C=C/C(=O)N2C[C@H]3C[C@@]34C2=CC(=O)c2[nH]cc(C)c24)n(C)c1`, the GI50 in the experiment on ACHN, in the experiment with IGROV-1, in the experiment on NCI-H226, in the experiment on MDA-MB-231, in the experiment on NCI-H460 and in the experiment on HCT-116 was < 0.0025 µM (active) each time. Also, the GI50 in the experiment with NCI-H23, with SW-620, in the experiment with SF-295, with SN12C, in the experiment with COLO 205 and with MCF7 was < 0.0025 µM (active) throughout. Besides, the GI50 in the experiment with TK-10, in the experiment on HCC 2998, in the experiment with EKVX, in the experiment on SK-MEL-5, in the experiment with OVCAR-3 and in the experiment with NCI-H522 was < 0.0025 µM (active) each time. Also, in the experiment with RPMI-8226, the GI50 is 0.0161 µM (active).
For the compound `O=C(CNc1c(Cl)cccc1Cl)NC1C=Cc2ccc(S(=O)(=O)Nc3c(Cl)cccc3Cl)cc2C1=O` (stereo not drawn), the GI50 was > 100 µM (inactive) in the experiment with ACHN; 2.4 µM (inactive) in the experiment with IGROV-1; 17.5 µM (inactive) in the experiment with NCI-H226; 51.3 µM (inactive) with MDA-MB-231; > 100 µM (inactive) in the experiment on NCI-H460; > 100 µM (inactive) in the experiment on HCT-116. The GI50 with NCI-H23 was > 100 µM (inactive); in the experiment on SW-620, > 100 µM (inactive); in the experiment on SF-295, 70.8 µM (inactive); in the experiment on SN12C, > 100 µM (inactive); in the experiment with COLO 205 it was > 100 µM (inactive); in the experiment on MCF7 it was > 100 µM (inactive). The GI50 was > 100 µM (inactive) in the experiment on TK-10; 67.5 µM (inactive) with HCC 2998; 17.7 µM (inactive) in the experiment on EKVX; 42.5 µM (inactive) in the experiment on OVCAR-3; 30.5 µM (inactive) in the experiment with NCI-H522; > 100 µM (inactive) in the experiment with RPMI-8226.
On to `O=C1C(=Cc2ccccc2O)N=C(c2ccccc2)N1n1c(-c2ccccc2)nc2ccccc2c1=O`, for which the GI50 in the experiment on ACHN was 29.5 µM (inactive); with IGROV-1, 34.4 µM (inactive); in the experiment with NCI-H226, 31.6 µM (inactive); in the experiment with MDA-MB-231, 42.2 µM (inactive); in the experiment with NCI-H460, 29.8 µM (inactive); in the experiment on HCT-116 it was 32.3 µM (inactive). Moreover, the GI50 was 35.4 µM (inactive) with NCI-H23; 45.8 µM (inactive) in the experiment with SW-620; 22.8 µM (inactive) in the experiment on SF-295; 43 µM (inactive) in the experiment on SN12C; 35.7 µM (inactive) with COLO 205; 17.2 µM (inactive) with MCF7. Moreover, the GI50 in the experiment on TK-10 is 50.2 µM (inactive); in the experiment with HCC 2998, 30.7 µM (inactive); in the experiment with EKVX, 30.6 µM (inactive); with SK-MEL-5, 19.1 µM (inactive); in the experiment on NCI-H522, 33.1 µM (inactive); in the experiment with RPMI-8226 it was 38.6 µM (inactive).
Turning to `Cc1cn(C2C=CC(COP(=O)(OCC3=CC(=O)c4ccccc4C3=O)N(C)CCCCCl)O2)c(=O)[nH]c1=O` (stereo not drawn), the GI50 in the experiment on ACHN is 13.6 µM (inactive); in the experiment on IGROV-1, 10.6 µM (inactive); in the experiment on NCI-H226, 10.3 µM (inactive); in the experiment with MDA-MB-231, 12.6 µM (inactive); in the experiment on NCI-H460, 2.49 µM (inactive); in the experiment with HCT-116 it was 14 µM (inactive). Further, the GI50 in the experiment on NCI-H23 is 2.39 µM (inactive); in the experiment with SW-620, 5.13 µM (inactive); in the experiment on SF-295, 2.59 µM (inactive); with SN12C, 11.6 µM (inactive); in the experiment with COLO 205, 3.23 µM (inactive); in the experiment on MCF7, 6.98 µM (inactive). Further, the GI50 with TK-10 was 20.7 µM (inactive); in the experiment with HCC 2998 it was 1.24 µM (inactive); in the experiment on SK-MEL-5, 0.813 µM (active); with OVCAR-3 it was 3.5 µM (inactive); with NCI-H522, 14.7 µM (inactive); with RPMI-8226, 5.05 µM (inactive).
As to `O=C1CC2c3ccccc3CCC2c2ccccc21` (stereo not drawn), the GI50 is 28.2 µM (inactive) with ACHN; 26.3 µM (inactive) in the experiment with IGROV-1; 12.1 µM (inactive) in the experiment with NCI-H226; 20.5 µM (inactive) in the experiment on MDA-MB-231; 22.3 µM (inactive) in the experiment with NCI-H460; 11.1 µM (inactive) in the experiment on HCT-116. The GI50 in the experiment on NCI-H23 was 20.2 µM (inactive); in the experiment on SW-620, 26.5 µM (inactive); with SF-295, 17.6 µM (inactive); in the experiment on COLO 205 it was 2.93 µM (inactive); with MCF7 it was 24 µM (inactive); in the experiment on TK-10 it was 35.2 µM (inactive). In addition, the GI50 in the experiment with HCC 2998 was 21.5 µM (inactive); in the experiment on EKVX, 2.58 µM (inactive); in the experiment with SK-MEL-5, 11.6 µM (inactive); in the experiment with OVCAR-3, 13.3 µM (inactive); in the experiment with NCI-H522, 23.3 µM (inactive); with RPMI-8226 it was 43.5 µM (inactive).
`CC1=NC(=Cc2ccc(Cl)cc2)C(=O)N1n1c(-c2ccccc2)nc2ccccc2c1=O`: the GI50 was 22.2 µM (inactive) in the experiment on ACHN; 31.6 µM (inactive) in the experiment with IGROV-1; > 100 µM (inactive) in the experiment on NCI-H226; 49.7 µM (inactive) in the experiment on MDA-MB-231; 23 µM (inactive) in the experiment with NCI-H460; 34.8 µM (inactive) with HCT-116. Besides, the GI50 is 26.3 µM (inactive) in the experiment with NCI-H23; 57.1 µM (inactive) in the experiment with SW-620; 40.9 µM (inactive) with SF-295; 43.4 µM (inactive) in the experiment on SN12C; 32.4 µM (inactive) with COLO 205; 28.2 µM (inactive) in the experiment with MCF7. Besides, the GI50 with TK-10 is 51.6 µM (inactive); in the experiment with HCC 2998 it was 38.8 µM (inactive); in the experiment on EKVX, 27.2 µM (inactive); in the experiment with SK-MEL-5, 36.7 µM (inactive); in the experiment with NCI-H522 it was 6.92 µM (inactive); with RPMI-8226, 34.1 µM (inactive).
